From patent US9221814B2, “Heterocyclic guanidine F1F0-atpase inhibitors and therapeutic uses thereof” (Lycera Corporation, priority 2012, dated 2015)
Where two headings read alike, the source gives them in different places.

Experiments:
F1F0-ATPase = molecular target: T1, F1F0-ATPase (Bos taurus, UniProt P13621); assay: Inhibition of F1F0-ATPase activity in synthesizing ATP (ATP synthesis inhibition); format: biochemical; settings: detection limit IC50=16 μM, read-out: ATP Syn IC50
T1 construct: from tissue
Procedure: (§1) Exemplary compounds described in above Examples were tested for activity against F1F0-ATPase by measuring the ability of the compounds to inhibit ATP synthesis. In addition, the compounds were assessed for cytotoxicity in Ramos cells. Inhibition of F1F0-ATPase activity in synthesizing ATP and cytotoxicity in Ramos cells were measured according to the procedures described in K. M. Johnson et al. Chemistry & Biology 2005, 12, 485-496.

Ramos cells = assay: Cytotoxicity in Ramos cells; format: cell-based; settings: detection limit EC50=16 μM, read-out: Ramos Cell EC50
Procedure: as §1

Structure (SMILES) | IC50 (F1F0-ATPase) [µM] | EC50 (Ramos cells) [µM] | EC50 (Ramos cells; Homo sapiens) [µM]
Cc1oncc1C(=O)/N=C(\Nc1cc(-c2cc(F)cc(Cl)c2)n[nH]1)NC1(C)CCCC1 [Compound A-98] | < 5 | < 5 | 
Cc1oncc1C(=O)N=C(NCC(C)C)Nc1cc(-c2cc(F)cc(Cl)c2)n[nH]1 [Compound A-99] | < 5 |  | 5 to 16
Cc1oncc1C(=O)/N=C(\Nc1cc(-c2cc(F)cc(Cl)c2)n[nH]1)NC(C)C [Compound A-100] | < 5 | < 5 | 
CCC(C)N/C(=N/C(=O)c1cnoc1C)Nc1cc(-c2cc(F)cc(Cl)c2)n[nH]1 (stereo not shown) [Compound A-101] | < 5 | < 5 | 
Cc1oncc1C(=O)/N=C(\Nc1cc(-c2cc(F)cc(Cl)c2)n[nH]1)NC1CCC1 [Compound A-102] | < 5 | < 5 | 
Cc1oncc1C(=O)/N=C(/NCCCOC(C)C)Nc1cc(-c2cc(F)cc(Cl)c2)[nH]n1 [Compound A-103] | > 16 | > 16 | 
CCOCCCN/C(=N/C(=O)c1cnoc1C)Nc1cc(-c2ccc(Cl)cc2)n[nH]1 [Compound A-104] | > 16 | > 16 | 
CCOCCCN/C(=N/C(=O)c1cnoc1C)Nc1cc(-c2ccc(F)cc2)n[nH]1 [Compound A-105] | > 16 | > 16 | 
CCOCCCN/C(=N/C(=O)c1cnoc1C)Nc1cc(-c2ccc(C)c(F)c2)n[nH]1 [Compound A-106] | 5 to 16 | > 16 | 
Cc1cc(N/C(=N\C(=O)c2cc(C)oc2C(F)(F)F)NC(C)(C)C)[nH]n1 [Compound A-107] | > 16 | > 16 | 
Cc1cc(N/C(=N\C(=O)c2cc(C)oc2C(F)(F)F)Nc2cc(F)cc(Cl)c2)n[nH]1 [Compound A-108] | < 5 | 5 to 16 | 
Cc1cc(N/C(=N\C(=O)c2cc(C)oc2C(F)(F)F)NCC(C)C)[nH]n1 [Compound A-109] | 5 to 16 | > 16 | 
Cc1cc(N/C(=N\C(=O)c2cc(C)oc2C(F)(F)F)NCC(C)(C)C)n[nH]1 [Compound A-110] | 5 to 16 | > 16 | 
CCC(C)N/C(=N/C(=O)c1cc(C)oc1C(F)(F)F)Nc1cc(C)n[nH]1 (stereo not shown) [Compound A-111] | 5 to 16 | > 16 | 
Cc1cc(N/C(=N\C(=O)c2cc(C)oc2C(F)(F)F)NC(C)C)n[nH]1 [Compound A-112] | > 16 | > 16 | 
COC[C@H](C)N/C(=N/C(=O)c1cc(C)oc1C(F)(F)F)Nc1cc(C)n[nH]1 [Compound A-113] | > 16 | > 16 | 
Cc1cc(C(=O)/N=C(\Nc2cc(-c3cc(F)cc(F)c3)[nH]n2)NC(C)(C)C)c(C(F)(F)F)o1 [Compound A-114] | 5 to 16 | 5 to 16 | 
Cc1cc(C(=O)/N=C(/Nc2cc(F)cc(Cl)c2)Nc2cc(-c3cc(F)cc(F)c3)[nH]n2)c(C(F)(F)F)o1 [Compound A-115] | < 5 | 5 to 16 | 
Cc1cc(C(=O)/N=C(/NCC(C)C)Nc2cc(-c3cc(F)cc(F)c3)[nH]n2)c(C(F)(F)F)o1 [Compound A-116] | < 5 | < 5 | 
Cc1cc(C(=O)/N=C(\Nc2cc(-c3cc(F)cc(F)c3)[nH]n2)NC(C)C)c(C(F)(F)F)o1 [Compound A-117] | < 5 | 5 to 16 | 
COC[C@H](C)N/C(=N/C(=O)c1cc(C)oc1C(F)(F)F)Nc1cc(-c2cc(F)cc(F)c2)n[nH]1 [Compound A-118] | < 5 | 5 to 16 | 
Cc1nc(C(=O)/N=C(\Nc2cc(-c3ccc(F)cc3)[nH]n2)NC(C)(C)C)c(C(F)(F)F)o1 [Compound A-119] | < 5 | 5 to 16 | 
Cc1nnsc1C(=O)/N=C(/NCC(C)C)Nc1cc(-c2ccc(F)cc2)[nH]n1 [Compound A-120] | > 16 | > 16 | 
CCOCCN/C(=N/C(=O)c1snnc1C)Nc1cc(-c2ccc(F)cc2)[nH]n1 [Compound A-121] | > 16 | > 16 | 
Cc1nnsc1C(=O)/N=C(\Nc1cc(-c2ccc(F)cc2)[nH]n1)NC1CCCC1 [Compound A-122] | > 16 | > 16 | 

Structure (SMILES) | IC50 (F1F0-ATPase) [µM] | EC50 (Ramos cells) [µM] | EC50 (Ramos cells; Homo sapiens) [µM]
Cc1oncc1C(=O)/N=C(/NCC(C)C)Nc1cc(-c2ccc(F)cc2)[nH]n1 [Compound A-123] | > 16 | > 16 | 
Cc1oncc1C(=O)N=C(Nc1cc(-c2ccc(F)cc2)n[nH]1)NC1CCCC1 [Compound A-124] | > 16 |  | > 16
Cc1oncc1C(=O)/N=C(\Nc1cc(-c2ccc(F)cc2)[nH]n1)NC1CCC1 [Compound A-125] | > 16 | > 16 | 
CCOC(=O)NC1CCC(N/C(=N\C(=O)c2cc(C)oc2C(F)(F)F)NCc2ccc(F)cc2Cl)CC1 (stereo not shown) [Compound A-126] | < 5 |  | < 5
CCOC(=O)NC1CCC(N/C(=N\C(=O)c2cc(C)oc2C(F)(F)F)Nc2cc(F)cc(Cl)c2)CC1 (stereo not shown) [Compound A-127] | < 5 |  | < 5
COc1ccc(-c2cc(N/C(=N\C(=O)c3cn(C)nc3C(F)(F)F)NC(C)(C)C)n[nH]2)cc1F [Compound A-128] | 5 to 16 | < 5 | 
COc1ccc(-c2cc(N/C(=N\C(=O)c3cn(C)nc3C(F)(F)F)NC3CCCC3)n[nH]2)cc1F [Compound A-129] | 5 to 16 | < 5 | 
COc1ccc(-c2cc(NC(=NC(=O)c3cn(C)nc3C(F)(F)F)NCC(C)(C)C)[nH]n2)cc1F [Compound A-130] | < 5 |  | < 5
COc1ccc(-c2cc(N/C(=N\C(=O)c3cn(C)nc3C(F)(F)F)Nc3cc(F)cc(Cl)c3)n[nH]2)cc1F [Compound A-131] | < 5 | > 16 | 
COC[C@H](C)N/C(=N/C(=O)c1cn(C)nc1C(F)(F)F)Nc1cc(-c2ccc(OC)c(F)c2)n[nH]1 [Compound A-132] | 5 to 16 | 5 to 16 | 
COc1ccc(-c2cc(N/C(=N\C(=O)c3cn(C)nc3C(F)(F)F)NCC(C)C)n[nH]2)cc1F [Compound A-133] | < 5 | < 5 | 
Cn1cc(C(=O)/N=C(\Nc2cc(-c3ccc(O)c(F)c3)[nH]n2)NC2CCCC2)c(C(F)(F)F)n1 [Compound A-134] | 5 to 16 | > 16 | 
Cn1cc(C(=O)/N=C(/NCC(C)(C)C)Nc2cc(-c3ccc(O)c(F)c3)[nH]n2)c(C(F)(F)F)n1 [Compound A-135] | 5 to 16 | < 5 | 
Cn1cc(C(=O)/N=C(\Nc2cc(-c3ccc(O)cc3F)[nH]n2)NC(C)(C)C)c(C(F)(F)F)n1 [Compound A-136] | < 5 | < 5 | 
Cn1cc(C(=O)N=C(Nc2cc(-c3ccc(O)cc3F)n[nH]2)NC2CCCC2)c(C(F)(F)F)n1 [Compound A-137] | > 16 |  | > 16
Cn1cc(C(=O)/N=C(/NCC(C)(C)C)Nc2cc(-c3ccc(O)cc3F)[nH]n2)c(C(F)(F)F)n1 [Compound A-138] | > 16 | > 16 | 
Cn1cc(C(=O)/N=C(/Nc2cccc(F)c2)Nc2cc(-c3ccc(O)cc3F)[nH]n2)c(C(F)(F)F)n1 [Compound A-139] | < 5 | < 5 | 
COC[C@H](C)N/C(=N/C(=O)c1cn(C)nc1C(F)(F)F)Nc1cc(-c2ccc(O)cc2F)n[nH]1 [Compound A-140] | > 16 | > 16 | 
Cn1cc(C(=O)/N=C(\Nc2n[nH]c3cncc(F)c23)NC(C)(C)C)c(C(F)(F)F)n1 [Compound A-141] | 5 to 16 | 5 to 16 | 
COCC(C)NC(=NC(=O)c1cn(C)nc1C(F)(F)F)Nc1n[nH]c2cncc(F)c12 (stereo not shown) [Compound A-142] | > 16 |  | 5 to 16
CC(C)CNC(=NC(=O)c1cn(C)nc1C(F)(F)F)Nc1n[nH]c2cncc(F)c12 [Compound A-143] | > 16 |  | 5 to 16
Cn1cc(C(=O)/N=C(/NCC(C)(C)C)Nc2n[nH]c3cncc(F)c23)c(C(F)(F)F)n1 [Compound A-144] | 5 to 16 | > 16 | 
COc1ccc(F)c(-c2cc(N/C(=N\C(=O)c3cn(C)nc3C(F)(F)F)NC(C)(C)C)n[nH]2)c1 [Compound A-145] | 5 to 16 | 5 to 16 | 
COc1ccc(-c2cc(N/C(=N\C(=O)c3cn(C)nc3C(F)(F)F)NC(C)C)n[nH]2)cc1F [Compound A-146] | 5 to 16 | < 5 | 
COc1ccc(-c2cc(N/C(=N\C(=O)c3cn(C)nc3C(F)(F)F)Nc3ccc(F)cc3Cl)[nH]n2)cc1F [Compound A-147] | < 5 | > 16 | 
